Test results taken from US5821219A (priority 1995, dated 1998).

Legend:
[1] = biological target: T1, novel mammalian opioid receptor (LC132, MSOR, OFQR) (Rattus norvegicus, UniProt P35370); test: biochemical; format: binding
T1 construct: The entire coding region of the receptor cDNA insert was subcloned into the RcRSV vector; expressed in transfected cells

mice [2] = test: Reversal of morphine analgesia, 49° C. tail withdrawal latency; format: in vivo, mouse; settings: morphine sulfate 5 mg/kg sc
mice [3] = test: Morphine hypothermia and Straub tail in DBA/2J mice
mice [4] = test: Acetic acid abdominal constriction (writhing) test; format: in vivo, mouse; settings: NAL 1 mg/kg and 10 mg/kg sc
Protocol: The AC assay was a modification of the technique originally described by Koster et al. Mice (N=9-15 per group) were acclimated to individual cylindrical Plexiglass observation chambers for >30 minutes. […] A separate group of Sal-treated mice received no icv injection (None). Between 5 and 10 minutes later, all mice were given an intraperitoneal (ip) injection of 0.9% acetic acid and placed back in their observation chambers. For the next 30 minutes, the number of abdominal constrictions (lengthwise stretches of the torso with a concomitant concave arching of the back) were counted and recorded. Four mice in separate chambers were observed simultaneously by a single experimenter blind to drug condition.

mice [5] = test system: mice; set-up: dose or concentration left out as unconfirmed

T1 sequence (P35370 whole entry): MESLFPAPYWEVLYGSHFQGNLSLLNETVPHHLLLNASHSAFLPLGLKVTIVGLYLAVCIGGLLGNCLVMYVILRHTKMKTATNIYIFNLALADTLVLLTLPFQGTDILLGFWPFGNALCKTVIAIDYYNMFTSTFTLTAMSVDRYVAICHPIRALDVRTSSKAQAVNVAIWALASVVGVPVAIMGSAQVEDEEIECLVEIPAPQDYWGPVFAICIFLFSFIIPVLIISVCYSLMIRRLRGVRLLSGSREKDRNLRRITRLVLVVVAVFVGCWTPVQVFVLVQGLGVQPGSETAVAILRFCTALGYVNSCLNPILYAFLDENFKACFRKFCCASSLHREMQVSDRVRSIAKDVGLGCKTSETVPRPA

## CN1CC[C@]23c4c5ccc(O)c4O[C@H]2[C@@H](O)CC[C@H]3[C@H]1C5 [dihydromorphine]
[1]
  specific binding of the radioactively-labeled ligand: no specific binding

## CC1(C)SSC(C)(C)[C@@H](NC(=O)[C@@H](N)Cc2ccc(O)cc2)C(=O)NCC(=O)N[C@@H](Cc2ccccc2)C(=O)N[C@H]1C(=O)O [DPDPE, c[D-penicillamine^2, D-penicillamine^5]enkephalin]
[1]
  specific binding of the radioactively-labeled ligand: no specific binding

## CC[C@]12CCN(CC3CC3)[C@H](C(=O)c3ccc(O)cc31)[C@@H]2C [ethylketocyclazocine]
[1]
  specific binding of the radioactively-labeled ligand: no specific binding

## β-endorphin
[1]
  specific binding of the radioactively-labeled ligand: no specific binding

## CCC12CCN(CC3(O)CC3)C(Cc3ccc(O)cc31)C2(C)C (stereo not shown) [bremacozine]
[1]
  specific binding of the radioactively-labeled ligand: no specific binding

## CCC(=O)C(CC(C)N(C)C)(c1ccccc1)c1ccccc1 (stereo not shown) [methadone]
[1]
  Bmax: 400-450 fentomoles/μg protein
  Kd: ~0.1 nM
  specific binding of the radioactively-labeled ligand: specific binding was found

## C[C@@H](NC(=O)[C@@H](N)Cc1ccc(O)cc1)C(=O)NCC(=O)N(C)[C@@H](Cc1ccccc1)C(=O)NCCO [DAMGO, Tyr-DAla-Gly-Met-Phe-Gly-ol]
[1]
  specific binding of the radioactively-labeled ligand: no specific binding

## CN1CC[C@]23c4c5ccc(O)c4O[C@H]2[C@@H](O)C=C[C@H]3[C@H]1C5 [morphine]
Mice [2]
  duration of analgesia: about 2 hours
Mice [2]; post-injection
  time of peak analgesia: 30 min
Mice [3]; MOR 20 mg/kg i.p., DBA/2J mice
  decrease in body temperature: 6 °C
Mice [3]; morphine 20 mg/kg
  Straub tail: produced Straub tail

## C=CCN1CC[C@]23c4c5ccc(O)c4O[C@H]2C(=O)CC[C@@]3(O)[C@H]1C5 [naloxone]
Mice [4]
  decreased number of abdominal constrictions due to SIA: reversed
Mice [5]
  hyperalgesia in TW test: In no case did any mouse treated with OFQ or naloxone exhibit hyperalgesia
Mice [5]; 46° C. water, p<0.05
  stress-induced analgesia: post-injection increase in TW latency: attenuated the 4 s post-injection increase in TW latency
